Some test systems named below: EKVX NSCLC; LOX IMVI melanoma; MALME-3M melanoma; NCI-H226 lung; SW-620 colon; U251 CNS; UACC-257 melanoma; UO-31 renal; OVCAR-4 ovarian; MCF7 breast.
Holding throughout (assay): growth of human tumour cells (NCI), 48 h

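Method: 48-hour compound exposure of cells in 96-well plates, five concentrations, linear interpolation of endpoints. Abbreviation: GI50, concentration required for 50% inhibition of growth. TGI is the concentration that stops growth completely.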

Regarding `CN1C/C(=C\c2ccco2)c2nc(N)nc(-c3ccco3)c2C1`, the TGI with EKVX NSCLC, with LOX IMVI melanoma, in the assay on MALME-3M melanoma, in the assay with NCI-H226 lung, with SW-620 colon and in the assay with U251 CNS was over 100 µM throughout. The TGI in the assay on UACC-257 melanoma and with UO-31 renal was over 100 µM throughout.
For `Cc1c(C(=O)C/C(=N/NC(=O)CC#N)C(N)=O)[n+](=O)c2ccccc2n1[O-]`, the TGI with EKVX NSCLC was over 100 µM; with LOX IMVI melanoma, over 100 µM; in the assay with MALME-3M melanoma, over 100 µM; with NCI-H226 lung it was over 100 µM; with OVCAR-4 ovarian, over 100 µM; in the assay on SW-620 colon, 34.5 µM. Also, the TGI with U251 CNS, in the assay with UACC-257 melanoma and with UO-31 renal was over 100 µM each time.
Consider `COc1cccc(OC)c1/C=N\N1C(=O)c2ccccc2C1=O`, for which the TGI with EKVX NSCLC, in the assay on LOX IMVI melanoma, in the assay on MALME-3M melanoma, in the assay with NCI-H226 lung, with OVCAR-4 ovarian and with SW-620 colon was over 100 µM throughout. Further, the TGI in the assay with UACC-257 melanoma and in the assay with UO-31 renal was over 100 µM each time.
`CCOC(=O)C1=C(O)c2c(OC)ccc(OC)c2C(=O)C1=O`: the TGI with EKVX NSCLC, in the assay on LOX IMVI melanoma, with MALME-3M melanoma, with NCI-H226 lung, in the assay on OVCAR-4 ovarian and with SW-620 colon was over 100 µM in each case. In addition, the TGI with U251 CNS, in the assay with UACC-257 melanoma and with UO-31 renal was over 100 µM throughout.
On to `Brc1ccc2c(c1)-c1ccccc1C1=NCCN12`, for which the GI50 was 0.526 µM in the assay on LOX IMVI melanoma; 1.35 µM with MALME-3M melanoma; 0.552 µM with MCF7 breast; 1.43 µM in the assay on OVCAR-4 ovarian; 0.44 µM with SW-620 colon; 1.24 µM with U251 CNS. Further, the GI50 in the assay on UACC-257 melanoma was 1.59 µM; with UO-31 renal, 0.585 µM. Moreover, the TGI was 10.6 µM with LOX IMVI melanoma; 2.97 µM in the assay on MALME-3M melanoma; 10.9 µM in the assay on MCF7 breast; 8.53 µM in the assay with OVCAR-4 ovarian; 10.4 µM with SW-620 colon; 11.1 µM in the assay with U251 CNS. The TGI with UACC-257 melanoma stood at 4.51 µM; in the assay on UO-31 renal it was 3.81 µM.
Regarding `O=C(/C=C/c1ccc(OCC(=O)N2CCN(c3ccccc3)CC2)cc1)c1ccccc1`, the TGI is 98.9 µM in the assay on EKVX NSCLC; 10.7 µM with LOX IMVI melanoma; over 58.2 µM in the assay on MALME-3M melanoma; over 60.4 µM with NCI-H226 lung; over 100 µM in the assay on OVCAR-4 ovarian; over 28.4 µM in the assay with SW-620 colon. Besides, the TGI in the assay with U251 CNS is 38 µM; in the assay with UACC-257 melanoma, over 100 µM; in the assay with UO-31 renal, over 62 µM.
Take `CCOC(=O)/C(=C/c1ccc[nH]1)P(=O)(OCC)OCC`: the TGI in the assay with EKVX NSCLC, with LOX IMVI melanoma, with MALME-3M melanoma, in the assay with NCI-H226 lung, with OVCAR-4 ovarian and in the assay on SW-620 colon was over 100 µM in each case. Moreover, the TGI with U251 CNS, with UACC-257 melanoma and in the assay on UO-31 renal was over 100 µM each time.
Take `COC(=O)C1=C(C)C(=O)C2(CCCCCC2C(=O)OC)C1` (stereo not drawn): the TGI with EKVX NSCLC, with MALME-3M melanoma, in the assay on NCI-H226 lung, in the assay with OVCAR-4 ovarian, in the assay on SW-620 colon and in the assay with U251 CNS was over 100 µM in each case. Further, the TGI in the assay with UACC-257 melanoma and in the assay on UO-31 renal was over 100 µM each time.
Regarding `O=C(CO[N+](=O)[O-])OCC(=O)c1ccccc1`, the TGI in the assay on EKVX NSCLC, with LOX IMVI melanoma, with MALME-3M melanoma, in the assay with NCI-H226 lung, with OVCAR-4 ovarian and in the assay on SW-620 colon was over 100 µM each time. Moreover, the TGI in the assay with U251 CNS, in the assay on UACC-257 melanoma and with UO-31 renal was over 100 µM throughout.
Take `NC1=NN(c2ccccc2)C(=O)C1/C(=N\NC(=O)c1cc2ccccc2cc1O)C(=O)Nc1ccc(Cl)cc1` (stereo not drawn): the TGI in the assay on EKVX NSCLC was 62.9 µM; with MALME-3M melanoma, over 100 µM; in the assay on NCI-H226 lung it was over 100 µM; in the assay with OVCAR-4 ovarian it was over 100 µM; in the assay with SW-620 colon it was over 100 µM; in the assay with U251 CNS, over 100 µM. For the same compound, the TGI came to 80.4 µM in the assay on UACC-257 melanoma and 96.1 µM in the assay with UO-31 renal.
Regarding `CC(C)=NO.CC(C)=NO.CC(C)=NO.CC(C)=NO.[Ti]`, the GI50 with EKVX NSCLC, in the assay on LOX IMVI melanoma, with MALME-3M melanoma, in the assay on NCI-H226 lung, in the assay on OVCAR-4 ovarian and in the assay on SW-620 colon was over 100 µM each time. In addition, the GI50 in the assay with U251 CNS, with UACC-257 melanoma and in the assay on UO-31 renal was over 100 µM in each case. Also, the TGI in the assay on EKVX NSCLC, in the assay on LOX IMVI melanoma, in the assay on MALME-3M melanoma, in the assay on NCI-H226 lung, with OVCAR-4 ovarian and in the assay with SW-620 colon was over 100 µM each time. For the same compound, the TGI in the assay on U251 CNS, with UACC-257 melanoma and with UO-31 renal was over 100 µM each time.
`Cn1ncc2c(c1=O)Nc1ccccc1S2(=O)=O`: the TGI is over 100 µM in the assay with EKVX NSCLC; over 100 µM in the assay on LOX IMVI melanoma; over 100 µM in the assay on MALME-3M melanoma; over 100 µM with NCI-H226 lung; over 100 µM in the assay with OVCAR-4 ovarian; 32.4 µM with SW-620 colon. Besides, the TGI with U251 CNS, in the assay on UACC-257 melanoma and with UO-31 renal was over 100 µM throughout.
As to `O=C(O)C12C3C4C1C1C2C3C41I` (stereo not drawn), the TGI with EKVX NSCLC, in the assay with LOX IMVI melanoma, with MALME-3M melanoma, in the assay on NCI-H226 lung, with OVCAR-4 ovarian and in the assay with SW-620 colon was over 100 µM each time. For the same compound, the TGI with U251 CNS, with UACC-257 melanoma and in the assay on UO-31 renal was over 100 µM in each case.
With `NC1CC(n2ccc(=O)[nH]c2=O)OC1C(O)CO` (stereo not drawn), the TGI in the assay with EKVX NSCLC, in the assay with LOX IMVI melanoma, in the assay on MALME-3M melanoma, with NCI-H226 lung, in the assay on OVCAR-4 ovarian and with SW-620 colon was over 100 µM throughout. In addition, the TGI in the assay with U251 CNS, in the assay with UACC-257 melanoma and with UO-31 renal was over 100 µM each time.

For the origin of these results see PubChem BioAssay (NCI).
